This is an account of results in the supplement of paper PMC4862054.

Common to all, as to test: normalised viability (% of control), CellTiter-Blue; higher = more viable cells (about 100 = DMSO control)
What all share (conditions): incubation time: 72 h
On the technique in general: Resazurin is reduced to fluorescent resorufin, in cell work by metabolically active cells.

Assay [1] has as its system MDA-MB-453. As for the experimental part:
(§1)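 DSRT, CellTiter-Blue viability, 72 h incubation. Signal is normalised to DMSO and benzethonium chloride controls. Value is the normalised response at dose 6.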

In assay [2] the test system is HDQ-P1. On the procedure:
as §1

Assay [3] has as its system CAL-85-1. On the procedure: as §1
Assay [4] concerns CAL-51. On the procedure:
as §1

Assay [5] relates to DU-4475. As for the experimental part: as §1
The test system of assay [6] is CAL-148. As for the experimental part:
as §1

The test system of assay [7] is MDA-MB-453. As for the experimental part:
(§2)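 DSRT, CellTiter-Blue viability, 72 h incubation. Signal is normalised to DMSO and benzethonium chloride controls. Value is the normalised response at dose 8.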
This is another data set of the same source.

Assay [8] relates to HDQ-P1. On the procedure:
as §2
The source holds these as a separate data set.

Assay [9] deals with CAL-85-1. On the procedure:
as §2
The source holds these as a separate data set.

In assay [10] the test system is CAL-51. As for the experimental part:
as §2
The source holds these as a separate data set.

The subject of assay [11] is DU-4475. On the procedure:
as §2
The source holds these as a separate data set.

The subject of assay [12] is CAL-148. As for the experimental part:
as §2
The source holds these as a separate data set.

Molecules are shown by their SMILES.

On to `COc1ncc(-c2ccc3nccc(-c4ccnnc4)c3c2)cc1NS(=O)(=O)c1ccc(F)cc1F` (30 nM), for which the normalised viability with MDA-MB-453 [1] is 12.1%; in the assay on HDQ-P1 [2], 30.4%; in the assay with CAL-85-1 [3] it was 50.4%; in the assay with CAL-51 [4], 33.1%; with DU-4475 [5] it was 63.6%; with CAL-148 [6] it was 43.7%.
For `COc1ncc(-c2ccc3nccc(-c4ccnnc4)c3c2)cc1NS(=O)(=O)c1ccc(F)cc1F` (300 nM), the normalised viability in the assay with MDA-MB-453 [7] worked out at 4.39%; in the assay on HDQ-P1 [8], 21.2%; in the assay with CAL-85-1 [9], 17.9%; in the assay on CAL-51 [10], 6.4%; in the assay with DU-4475 [11], 37.8%; in the assay with CAL-148 [12], 6.61%.
With `C[C@@]1(C(=O)Nc2ccc(F)nc2)CCCN1c1nc(Nc2cc(C3CC3)n[nH]2)c2cccn2n1` (300 nM), the normalised viability with MDA-MB-453 [1] came out at 84.6%; with HDQ-P1 [2], 50.3%; in the assay with CAL-85-1 [3], 65.7%; in the assay on CAL-51 [4] it was 88.3%; in the assay on DU-4475 [5], 77.7%; in the assay with CAL-148 [6], 95.7%.
Regarding `C[C@@]1(C(=O)Nc2ccc(F)nc2)CCCN1c1nc(Nc2cc(C3CC3)n[nH]2)c2cccn2n1` (3000 nM), the normalised viability in the assay with MDA-MB-453 [7] is 65.4%; in the assay with HDQ-P1 [8] it was 25.6%; with CAL-85-1 [9] it was 38.1%; in the assay with CAL-51 [10] it was 31.4%; with DU-4475 [11], 14.8%; with CAL-148 [12], 42.9%.
Regarding `COc1c(C)cnc(Cn2cnc3c(Cl)nc(N)nc32)c1C` [BIIB021] (300 nM), the normalised viability with MDA-MB-453 [1] came to 17.3%; with HDQ-P1 [2], 60.8%; in the assay on CAL-85-1 [3], 56.8%; with CAL-51 [4], 57.6%; in the assay with DU-4475 [5], 0.39%; in the assay on CAL-148 [6] it was 29.5%.
Regarding `COc1c(C)cnc(Cn2cnc3c(Cl)nc(N)nc32)c1C` [BIIB021] (3000 nM), the normalised viability in the assay on MDA-MB-453 [7] is 6.99%; in the assay on HDQ-P1 [8], 33%; in the assay on CAL-85-1 [9], 22.9%; with CAL-51 [10] it was 10.2%; in the assay with DU-4475 [11], -0.3%; with CAL-148 [12] it was 17%.
Regarding `CC(C)C[C@H](NC(=O)[C@H](Cc1ccccc1)NC(=O)c1cnccn1)B(O)O` [Bortezomib] (30 nM), the normalised viability was 24% in the assay on MDA-MB-453 [1]; 2.53% in the assay with HDQ-P1 [2]; 7.63% with CAL-85-1 [3]; 67.6% with CAL-51 [4]; 9.69% with DU-4475 [5]; 41% in the assay on CAL-148 [6].
On to `CC(C)C[C@H](NC(=O)[C@H](Cc1ccccc1)NC(=O)c1cnccn1)B(O)O` [Bortezomib] (300 nM), for which the normalised viability in the assay on MDA-MB-453 [7] was 19.3%; with HDQ-P1 [8] it was 1.48%; with CAL-85-1 [9] it was 2.25%; with CAL-51 [10] it was 1.35%; with DU-4475 [11], 0.52%; in the assay with CAL-148 [12], 9.74%.
For `CS(=O)(=O)OCCCCOS(C)(=O)=O` [Busulfan] (3000 nM), the normalised viability with MDA-MB-453 [1] came out at 99.9%; in the assay on HDQ-P1 [2], 83%; in the assay on CAL-85-1 [3] it was 106%; in the assay on CAL-51 [4] it was 92.8%; in the assay on DU-4475 [5], 76%; with CAL-148 [6] it was 114%.
As for `CS(=O)(=O)OCCCCOS(C)(=O)=O` [Busulfan] (30000 nM), the normalised viability came out at 117% in the assay with MDA-MB-453 [7]; 102% in the assay on HDQ-P1 [8]; 96.5% in the assay with CAL-85-1 [9]; 100% in the assay on CAL-51 [10]; 91% in the assay on DU-4475 [11]; 107% in the assay with CAL-148 [12].
Regarding `C#Cc1cccc(Nc2ncnc3cc(OC)c(OCCCCCCC(=O)NO)cc23)c1` [CUDC-101] (300 nM), the normalised viability with MDA-MB-453 [1] worked out at 46%; in the assay with HDQ-P1 [2], 38.8%; with CAL-85-1 [3] it was 64.1%; in the assay with CAL-51 [4], 105%; with DU-4475 [5], 75.1%; in the assay with CAL-148 [6] it was 81.9%.
`C#Cc1cccc(Nc2ncnc3cc(OC)c(OCCCCCCC(=O)NO)cc23)c1` [CUDC-101] (3000 nM): the normalised viability in the assay with MDA-MB-453 [7] came out at 4.71%; in the assay with HDQ-P1 [8], 41.6%; in the assay with CAL-85-1 [9] it was 4.33%; in the assay on CAL-51 [10], 68%; in the assay with DU-4475 [11], 35%; in the assay with CAL-148 [12] it was 11.9%.
With `CC[C@@]1(O)C(=O)OCc2c1cc1n(c2=O)Cc2cc3ccccc3nc2-1` [Camptothecin] (150 nM), the normalised viability in the assay with MDA-MB-453 [1] is 50.7%; with HDQ-P1 [2], 48.3%; in the assay on CAL-85-1 [3], 61%; in the assay on CAL-51 [4] it was 12.7%; with DU-4475 [5], 13.9%; in the assay on CAL-148 [6] it was 12.8%.
Consider `CC[C@@]1(O)C(=O)OCc2c1cc1n(c2=O)Cc2cc3ccccc3nc2-1` [Camptothecin] (1500 nM), for which the normalised viability with MDA-MB-453 [7] worked out at 21.5%; in the assay on HDQ-P1 [8], 31.6%; in the assay on CAL-85-1 [9] it was 25.1%; with CAL-51 [10] it was 4.85%; in the assay on DU-4475 [11] it was 0.88%; in the assay on CAL-148 [12], 1.27%.
For `COc1cccc2c1C(=O)c1c(O)c3c(c(O)c1C2=O)C[C@@](O)(C(C)=O)C[C@@H]3O[C@H]1C[C@H](N)[C@H](O)[C@H](C)O1` [Daunorubicin] (30 nM), the normalised viability turned out to be 93.7% in the assay on MDA-MB-453 [1]; 74.9% in the assay with HDQ-P1 [2]; 94.6% with CAL-85-1 [3]; 54.5% with CAL-51 [4]; 64.7% in the assay with DU-4475 [5]; 59.5% with CAL-148 [6].
For the molecule `COc1cccc2c1C(=O)c1c(O)c3c(c(O)c1C2=O)C[C@@](O)(C(C)=O)C[C@@H]3O[C@H]1C[C@H](N)[C@H](O)[C@H](C)O1` [Daunorubicin] (300 nM), the normalised viability in the assay on MDA-MB-453 [7] was found to be 76.1%; in the assay on HDQ-P1 [8], 52.7%; in the assay with CAL-85-1 [9] it was 53.8%; in the assay on CAL-51 [10], 31.2%; in the assay on DU-4475 [11], 33.6%; with CAL-148 [12], 48.7%.
In the case of `CN1CCN(c2ccc3nc(-c4c(N)c5c(F)cccc5[nH]c4=O)[nH]c3c2)CC1` [Dovitinib] (300 nM), the normalised viability with MDA-MB-453 [1] was 94.5%; with HDQ-P1 [2], 54.7%; with CAL-85-1 [3], 86.9%; in the assay on CAL-51 [4], 109%; in the assay on DU-4475 [5], 86.5%; in the assay with CAL-148 [6], 98.7%.
Regarding `CN1CCN(c2ccc3nc(-c4c(N)c5c(F)cccc5[nH]c4=O)[nH]c3c2)CC1` [Dovitinib] (3000 nM), the normalised viability came out at 93.4% in the assay with MDA-MB-453 [7]; 87.4% in the assay on HDQ-P1 [8]; 86.9% in the assay on CAL-85-1 [9]; 109% in the assay on CAL-51 [10]; 87.9% in the assay on DU-4475 [11]; 90.2% with CAL-148 [12].
Regarding `O=c1[nH]c(=O)n([C@H]2C[C@H](O)[C@@H](CO)O2)cc1F` [Floxuridine] (300 nM), the normalised viability stood at 90.8% in the assay with MDA-MB-453 [1]; 78.8% in the assay with HDQ-P1 [2]; 58.7% in the assay with CAL-85-1 [3]; 35% with CAL-51 [4]; 76% in the assay with DU-4475 [5]; 55.2% in the assay with CAL-148 [6].
As to `O=c1[nH]c(=O)n([C@H]2C[C@H](O)[C@@H](CO)O2)cc1F` [Floxuridine] (3000 nM), the normalised viability in the assay with MDA-MB-453 [7] worked out at 71.8%; in the assay on HDQ-P1 [8], 80.1%; in the assay with CAL-85-1 [9], 42.9%; in the assay on CAL-51 [10], 22.8%; with DU-4475 [11] it was 97.9%; in the assay with CAL-148 [12], 44.8%.
